Measured values from ChEMBL document CHEMBL3875157, “Neurodegenerative diseases linked to misfolded proteins and their therapeutic approaches: A review” (Eur J Med Chem, 2016).

Molecular target: Acetylcholinesterase (Homo sapiens, UniProt P22303)
Assay: Inhibition of acetylcholinesterase (unknown origin)

Acetylcholinesterase, sequence (P22303 whole entry): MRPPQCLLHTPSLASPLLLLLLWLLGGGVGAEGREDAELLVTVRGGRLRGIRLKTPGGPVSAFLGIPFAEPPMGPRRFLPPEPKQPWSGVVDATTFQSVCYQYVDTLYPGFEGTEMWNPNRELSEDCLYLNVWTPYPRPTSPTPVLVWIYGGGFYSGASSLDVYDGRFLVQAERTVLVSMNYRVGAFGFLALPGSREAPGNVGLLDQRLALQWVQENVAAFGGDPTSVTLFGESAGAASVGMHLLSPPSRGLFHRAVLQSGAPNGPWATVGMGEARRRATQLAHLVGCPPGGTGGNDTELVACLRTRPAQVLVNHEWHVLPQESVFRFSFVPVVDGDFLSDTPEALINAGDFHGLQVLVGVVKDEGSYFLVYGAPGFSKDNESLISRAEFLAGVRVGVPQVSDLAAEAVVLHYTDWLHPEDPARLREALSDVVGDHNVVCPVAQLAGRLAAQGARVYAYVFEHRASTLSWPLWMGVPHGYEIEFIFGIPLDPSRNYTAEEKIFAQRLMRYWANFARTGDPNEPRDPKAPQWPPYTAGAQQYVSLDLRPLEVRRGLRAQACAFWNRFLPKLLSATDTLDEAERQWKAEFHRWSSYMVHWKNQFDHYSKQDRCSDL

Structure (SMILES): CCOC(=O)C1=C(C)Oc2nc3c(c(N)c2C1c1ccc(OC)cc1)CCCC3 (stereo unspecified)
- IC50: 182 to 868 nM
